Data: patent US20230092890A1, “1, 3, 4-Oxadiazole derivative compounds as histone deacetylase 6 inhibitor, and the pharmaceutical composition comprising the same” (Chong Kun Dang Pharmaceutical Corp., priority 2019, published 2023)
pIC50: −log10 of the molar value.

Experiments:
[1] = target: T1, HDAC1 (Homo sapiens, UniProt Q13547); assay: HDAC enzyme activity inhibition (in vitro), HDAC1 Fluorimetric Drug Discovery Assay Kit; type: biochemical; settings: samples at 100, 1000 and 10000 nM; 37° C. 60 minutes; fluorescence Ex 390, Em 460; read-out: HDAC1 IC50
T1 construct: purchased Enzolifesciences BML-AK511
Description: <Experimental Example 1> Identification of HDAC Enzyme Activity Inhibition (In Vitro)
A selective HDAC6 inhibitor is important for selectivity of HDAC1 inhibition, which is a cause of side effects, and thus HDAC1/6 enzyme selectivity and cell selectivity (HDAC1: histone acetylation/HDAC6: tubulin acetylation) were identified.
(§1) A HDAC enzyme inhibitory capacity of a test material was measured by using HDAC1 Fluorimetric Drug Discovery Assay Kit (Enzolifesciences: BML-AK511) and HDAC6 human recombinant (Calbiochem: 382180). For a HDAC1 assay, samples were treated at a concentration of 100, 1000 and 10000 nM. For a HDAC6 assay, samples were treated at a concentration of 0.1, 1, 10, 100 and 1000 nM. After the above sample treatment, a reaction was continued at 37° C. for 60 minutes, then treated with a developer, and then subjected to a reaction at 37° C. for 30 minutes, after which fluorescence intensity (Ex 390, Em 460) was measured by using FlexStatin3 (Molecular device).

[2] = target: T2, HDAC6 human recombinant (Homo sapiens, UniProt Q9UBN7); assay: HDAC enzyme activity inhibition (in vitro), HDAC6 assay; type: biochemical; settings: samples at 0.1, 1, 10, 100 and 1000 nM; 37° C. 60 minutes; fluorescence Ex 390, Em 460; read-out: HDAC6 IC50
T2 construct: purchased Calbiochem 382180
T2 sequence (Q9UBN7 1-1215): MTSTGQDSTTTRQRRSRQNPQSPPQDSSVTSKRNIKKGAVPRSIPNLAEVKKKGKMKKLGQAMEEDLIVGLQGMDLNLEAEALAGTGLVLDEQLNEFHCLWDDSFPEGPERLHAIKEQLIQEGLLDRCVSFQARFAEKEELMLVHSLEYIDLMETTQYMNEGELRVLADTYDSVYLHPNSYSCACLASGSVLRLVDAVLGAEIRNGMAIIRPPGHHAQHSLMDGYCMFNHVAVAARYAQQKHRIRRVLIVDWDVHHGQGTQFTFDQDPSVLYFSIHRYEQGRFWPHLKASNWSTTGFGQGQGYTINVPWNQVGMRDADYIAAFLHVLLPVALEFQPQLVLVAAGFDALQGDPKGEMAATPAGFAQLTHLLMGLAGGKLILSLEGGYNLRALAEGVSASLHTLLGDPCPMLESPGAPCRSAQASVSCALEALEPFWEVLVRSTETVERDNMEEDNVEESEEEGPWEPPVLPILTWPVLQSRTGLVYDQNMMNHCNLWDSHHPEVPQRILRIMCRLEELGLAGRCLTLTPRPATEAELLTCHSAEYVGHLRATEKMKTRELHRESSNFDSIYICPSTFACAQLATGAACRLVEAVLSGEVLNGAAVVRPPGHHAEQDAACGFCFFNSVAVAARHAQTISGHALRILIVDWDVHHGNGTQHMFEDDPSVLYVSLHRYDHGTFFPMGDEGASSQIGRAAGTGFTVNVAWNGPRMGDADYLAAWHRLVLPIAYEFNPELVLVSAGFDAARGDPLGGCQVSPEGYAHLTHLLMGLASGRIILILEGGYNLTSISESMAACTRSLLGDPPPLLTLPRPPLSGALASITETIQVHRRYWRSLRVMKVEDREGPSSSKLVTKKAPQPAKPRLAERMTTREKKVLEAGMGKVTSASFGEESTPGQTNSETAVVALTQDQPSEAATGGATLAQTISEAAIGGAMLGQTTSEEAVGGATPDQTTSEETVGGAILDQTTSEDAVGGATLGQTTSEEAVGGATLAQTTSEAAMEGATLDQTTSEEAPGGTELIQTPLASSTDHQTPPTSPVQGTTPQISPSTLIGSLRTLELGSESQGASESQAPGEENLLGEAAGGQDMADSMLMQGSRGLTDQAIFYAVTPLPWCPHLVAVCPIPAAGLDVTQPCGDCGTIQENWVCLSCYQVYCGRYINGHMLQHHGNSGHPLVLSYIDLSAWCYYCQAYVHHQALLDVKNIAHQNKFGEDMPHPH
Description: as §1, with “For a HDAC6 assay, samples were treated at a concentration of 0.1, 1, 10, 100 and 1000 nM.” left out

T1 sequence (Q13547 whole entry): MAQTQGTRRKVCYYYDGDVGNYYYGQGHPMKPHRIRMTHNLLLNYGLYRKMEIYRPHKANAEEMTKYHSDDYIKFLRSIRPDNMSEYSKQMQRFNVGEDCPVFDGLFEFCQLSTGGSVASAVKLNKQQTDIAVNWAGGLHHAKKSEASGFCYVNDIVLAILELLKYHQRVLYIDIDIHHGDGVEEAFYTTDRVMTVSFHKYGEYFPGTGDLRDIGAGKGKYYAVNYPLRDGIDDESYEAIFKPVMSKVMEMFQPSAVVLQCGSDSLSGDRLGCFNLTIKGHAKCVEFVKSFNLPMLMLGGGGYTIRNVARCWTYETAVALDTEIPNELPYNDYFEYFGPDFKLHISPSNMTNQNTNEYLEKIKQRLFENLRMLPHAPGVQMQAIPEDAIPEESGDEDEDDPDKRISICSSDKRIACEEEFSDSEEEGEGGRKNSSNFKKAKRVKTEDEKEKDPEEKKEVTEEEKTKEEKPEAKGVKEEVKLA

pIC50 [1]	pIC50 [2]	SMILES
< 5.00	7.55	O=c1n(Cc2ccc(-c3nnc(C(F)F)o3)cc2)c2cc(Cl)c(Cl)cc2n1C1CCN(C2COC2)CC1 [Compound 86, 5,6-dichloro-1-(4-(5-(difluoromethyl)-1,3,4-oxadiazole-2-yl)benzyl)-3-(1-(oxetan-3-yl)piperidine-4-yl)-1,3-dihydro-2H-benzo[d]imidazole-2-one]
< 5.00	7.12	O=c1oc2cc(-c3cnn(C4CCN(CC(F)(F)F)CC4)c3)c(F)cc2n1Cc1ccc(-c2nnc(C(F)F)o2)cn1 [Compound 363, 3-((5-(5-(difluoromethyl)-1,3,4-oxadiazole-2-yl)pyridine-2-yl)methyl)-5-fluoro-6-(1-(1-(2,2,2-trifluoroethyl)piperidine-4-yl)-1H-pyrazole-4-yl)benzo[d]oxazole-2(3H)-one]
< 5.00	8.05	O=c1n(Cc2ccc(-c3nnc(C(F)F)o3)cn2)c2cc(F)c(-c3ccncc3)cc2n1CC1CCN(C2COC2)CC1 [Compound 291, 1-((5-(5-(difluoromethyl)-1,3,4-oxadiazole-2-yl)pyridine-2-yl)methyl)-6-fluoro-3-((1-(oxetan-3-yl)piperidine-4-yl)methyl)-5-(pyridine-4-yl)-1,3-dihydro-2H-benzo[d]imidazole-2-one]
< 5.00	7.74	O=c1oc2cc(-c3ccnc(N4CCNCC4)c3)c(F)cc2n1Cc1ccc(-c2nnc(C(F)F)o2)cn1 [Compound 368, 3-((5-(5-(difluoromethyl)-1,3,4-oxadiazole-2-yl)pyridine-2-yl)methyl)-5-fluoro-6-(2-(piperazine-1-yl)pyridine-4-yl)benzo[d]oxazole-2(3H)-one]
< 5.00	6.50	CN1CCC(n2c(=O)n(Cc3ccc(-c4nnc(C(F)F)o4)cn3)c3cc(-c4cccnc4)ccc32)CC1 [Compound 145, 3-((5-(5-(difluoromethyl)-1,3,4-oxadiazole-2-yl)pyridine-2-yl)methyl)-1-(1-methylpiperidine-4-yl)-5-(pyridine-3-yl)-1,3-dihydro-2H-benzo[d]imidazole-2-one]
< 5.00	7.80	CN1CCC[C@@H](n2c(=O)n(Cc3ccc(-c4nnc(C(F)F)o4)cn3)c3cc(F)c(-c4ccncc4)cc32)C1 [Compound 275, (R)-1-((5-(5-(difluoromethyl)-1,3,4-oxadiazole-2-yl)pyridine-2-yl)methyl)-6-fluoro-3-(1-methylpiperidine-3-yl)-5-(pyridine-4-yl)-1,3-dihydro-2H-benzo[d]imidazole-2-one]
< 5.00	7.32	CN1CCC(n2c(=O)n(Cc3ccc(-c4nnc(C(F)F)o4)cn3)c3ccc(-c4cnoc4)cc32)CC1 [Compound 211, 1-((5-(5-(difluoromethyl)-1,3,4-oxadiazole-2-yl)pyridine-2-yl)methyl)-5-(isoxazole-4-yl)-3-(1-methylpiperidine-4-yl)-1,3-dihydro-2H-benzo[d]imidazole-2-one]
< 5.00	6.93	CC(=O)N1CCC(n2c(=O)n(Cc3ccc(-c4nnc(C(F)F)o4)cc3F)c3ccc(Cl)cc32)CC1 [Compound 182, 3-(1-acetylpiperidine-4-yl)-5-chloro-1-(4-(5-(difluoromethyl)-1,3,4-oxadiazole-2-yl)-2-fluorobenzyl)-1,3-dihydro-2H-benzo[d]imidazole-2-one]
< 5.00	7.23	Cn1c(=O)n(Cc2ccc(-c3nnc(C(F)F)o3)cn2)c2cc(F)c(N3CCN(CC(F)(F)F)CC3)cc21 [Compound 263, 1-((5-(5-(difluoromethyl)-1,3,4-oxadiazole-2-yl)pyridine-2-yl)methyl)-6-fluoro-3-methy 1-5-(4-(2,2,2-trifluoroethyl)piperazine-1-yl)-1,3-dihydro-2H-benzo[d]imidazole-2-one]
< 5.00	7.30	CC(=O)N1CCC(n2c(=O)n(Cc3ccc(-c4nnc(C(F)F)o4)cc3)c3cc(F)c(F)cc32)CC1 [Compound 175, 1-(1-acetylpiperidine-4-yl)-3-(4-(5-(difluoromethyl)-1,3,4-oxadiazole-2-yl)benzyl)-5,6-difluoro-1,3-dihydro-2H-benzo[d]imidazole-2-one]
< 5.00	7.49	CN1CCC(n2c(=O)n(Cc3ccc(-c4nnc(C(F)F)o4)cn3)c3ccc(Cl)cc32)CC1 [Compound 97, 5-chloro-1-((5-(5-(difluoromethyl)-1,3,4-oxadiazole-2-yl)pyridine-2-yl)methyl)-3-(1-methylpiperidine-4-yl)-1,3-dihydro-2H-benzo[d]imidazole-2-one]
< 5.00	7.70	CN1CCC(n2c(=O)n(Cc3ccc(-c4nnc(C(F)F)o4)cn3)c3ccc(-c4cccc(F)c4)cc32)CC1 [Compound 133, 1-((5-(5-(difluoromethyl)-1,3,4-oxadiazole-2-yl)pyridine-2-yl)methyl)-5-(3-fluorophenyl)-3-(1-methylpiperidine-4-yl)-1,3-dihydro-2H-benzo[d]imidazole-2-one]
< 5.00	7.32	CS(=O)(=O)N1CCC(n2c(=O)n(Cc3ccc(-c4nnc(C(F)F)o4)cn3)c3cc(F)c(F)cc32)CC1 [Compound 193, 1-((5-(5-(difluoromethyl)-1,3,4-oxadiazole-2-yl)pyridine-2-yl)methyl)-5,6-difluoro-3-(1-(methylsulfonyl)piperidine-4-yl)-1,3-dihydro-2H-benzo[d]imidazole-2-one]
< 5.00	6.84	CN1CCC(n2c(=O)n(Cc3ccc(-c4nnc(C(F)F)o4)cc3F)c3ccc(C4CCN(C(=O)CO)CC4)cc32)CC1 [Compound 179, 1-(4-(5-(difluoromethyl)-1,3,4-oxadiazole-2-yl)-2-fluorobenzyl)-5-(1-(2-hydroxyacetyl)piperidine-4-yl)-3-(1-methylpiperidine-4-yl)-1,3-dihydro-2H-benzo[d]imidazole-2-one]
< 5.00	6.17	CC(C)(C)OC(=O)N1CCN(c2ccc(-c3cc4oc(=O)n(Cc5ccc(-c6nnc(C(F)F)o6)cn5)c4cc3F)cn2)CC1 [Compound 344, tert-butyl 4-(5-(3-((5-(5-(difluoromethyl)-1,3,4-oxadiazole-2-yl)pyridine-2-yl)methyl)-5-fluoro-2-oxo-2,3-dihydrobenzo[d]oxazole-6-yl)pyridine-2-yl)piperazine-1-carboxylate]
< 5.00	7.21	CN1CCC(c2ccc3c(c2)sc(=O)n3Cc2ccc(-c3nnc(C(F)F)o3)cn2)CC1 [Compound 331, 3-((5-(5-(difluoromethyl)-1,3,4-oxadiazole-2-yl)pyridine-2-yl)methyl)-6-(1-methylpiperidine-4-yl)benzo[d]thiazole-2(3H)-one]
< 5.00	7.15	CN1CCC(n2c(=O)n(Cc3ccc(-c4nnc(C(F)F)o4)cc3F)c3ccc(-c4cccc(F)c4)cc32)CC1 [Compound 159, 1-(4-(5-(difluoromethyl)-1,3,4-oxadiazole-2-yl)-2-fluorobenzyl)-5-(3-fluorophenyl)-3-(1-methylpiperidine-4-yl)-1,3-dihydro-2H-benzo[d]imidazole-2-one]
